The values that follow are results of earlier work, collected in article PMC2857392 (Biochemistry, 2010).

For one data set, the target named is Stx1 B-subunit (Stx1B). The settings on record: read-out: dissociation constant (Kd) for B-subunit monomer.

Turning to `OC[C@H]1O[C@H](O[C@@H]2[C@H](O)[C@@H](O)[C@H](O[C@H]3[C@H](O)[C@@H](O)C(O)O[C@@H]3CO)O[C@@H]2CO)[C@H](O)[C@@H](O)[C@H]1O` (stereo partly drawn) [Pk trisaccharide, Galα1-4Galβ1-4Glc], the Kd on Stx1 B-subunit (Stx1B) is 500 to 1000 µM; on Stx1B, 4800 µM.
With globotriaosylceramide [Gb3], the Kd on Stx1B is 0.003 µM.

Usually Kd stands for the constant that tells how readily two partners part at equilibrium.
